Test results from PubChem BioAssay AID720588 (Broad Institute, 2013).
“And” between values parts separate entries of the source, which are not always exact repeats. Identical values can stand only once.

system: HEK293T viability, CellTiter-Glo ATP luminescence, 72 h; assay: ATP-based viability loss in HEK293T cells – cell-based, CellTiter-Glo luminescence, cherry-pick, set 3, cytotoxicity control, dose response (AID 720588);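 also: potency for luminescence loss meaning cytotoxic compounds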

SMILES | AC35
Oc1c(C(c2ccc(Cl)cc2)N2CCCC2)cc(Cl)c2cccnc12 (configuration not stated) | 6.54 µM
COc1ccc(OC)c(-c2nnc3n2N=C(c2ccc(OC)c(OC4CCOC4)c2)CS3)c1 (configuration not stated) | 9.24 µM
C[C@H](CO)N1C[C@H](C)[C@H](CN(C)Cc2ccc(Oc3ccccc3)cc2)Oc2ccc(NC(=O)Cn3cnnn3)cc2CC1=O | 15.5 µM
O=c1cc(-c2ccccc2)oc2ccc3ccccc3c12 | 1.57 µM
COc1ccc(/C=C(/C(=O)c2cccs2)N2C=CC=CC2=C(C#N)C#N)cc1 | 6.97 µM
OCC1OC(n2ccc3c2ncn2ncnc32)C(O)C1O (configuration not stated) | 14.6 µM
Nc1nc2cc3c(cc2cc1C(=O)NCCc1c[nH]c2ccccc12)OCO3 | 5.04 µM
COc1ccc(-c2ccc3c(c2)[C@H]2[C@H](CCN2S(=O)(=O)c2ccc(OC)cc2)[C@@H](CO)N3C)cc1 | 24.5 µM
CC(C)N1C/C(=C/c2cccnc2)C(=O)/C(=C/c2cccnc2)C1 | 18.7 µM
C[C@@H]1CN([C@@H](C)CO)C(=O)c2cccc(NS(=O)(=O)c3ccccc3)c2O[C@@H]1CN(C)Cc1ccc(C(=O)Nc2ccccc2N)cc1 | 2.29 µM
O=C(C[C@@H]1C[C@H]2c3cc(NS(=O)(=O)c4ccc(F)cc4)ccc3O[C@H]2[C@H](CO)O1)NCc1ccc(-c2ccccc2)cc1 | 18.7 µM
N#C[C@@H]1[C@H](c2ccc(C#Cc3ccc(F)cc3)cc2)[C@@H](CO)N1C(=O)Nc1ccc(F)cc1 | 12.6 µM
COC(=O)C1=C(C)N(Cc2ccccc2C(F)(F)F)C(=NCc2ccc(OC)cc2)NC1c1ccc(C(F)(F)F)cc1 (configuration not stated) | 9.47 µM
COC1C(O)C(C)OC(OC2C(Oc3cccc4c(O)c5c(=O)oc6ccc(C)c7c(=O)oc(c34)c5c67)OC(C)C(O)C2O)C1O (configuration not stated) | 15.1 µM
CCc1cccc2c(C(=O)CN3C(=O)NC4(CCCCC4)C3=O)c[nH]c12 | 11.6 µM
C[C@H](O)C#Cc1ccc2c(c1)O[C@@H](CN(C)Cc1ccc(-c3ccccc3)cc1)[C@H](C)CN([C@@H](C)CO)S2(=O)=O | 14.7 µM and 11.2 µM
Cc1cc(C(=O)Nc2ccc3c(c2)C(=O)N(C)[C@@H]2CC[C@@H](CC(=O)NCc4ccc(-c5ccccc5)cc4)O[C@H]2CO3)no1 | 24.5 µM
COc1ccc(NC(=S)N=Nc2c(O)[nH]c3ccccc23)cc1 | 7.54 µM
Cc1cccc(/C=C(\c2nc3ccccc3[nH]2)S(=O)(=O)c2ccccc2)c1 | 8.44 µM
Cc1cc(C)cc(N2C(=O)NC(=O)/C(=C\C=C\c3ccco3)C2=O)c1 | 10.6 µM
Oc1[nH]c2ccc(Br)cc2c1N=NC(=S)N1CCOCC1 | 4.31 µM

SMILES | AC35
Cc1cc(C)c2sc(NNC(=O)c3ccc(S(=O)(=O)N4CCc5ccccc5C4)cc3)nc2c1 | 5.13 µM
C[C@H]1CN([C@@H](C)CO)S(=O)(=O)c2ccc(C#CC(C)(C)O)cc2O[C@@H]1CN(C)Cc1ccc(-c2ccccc2)cc1 | 3.6 µM
Cc1ccc(C(=O)O/N=C(\N)c2ccccn2)cc1 | 14.9 µM
CC(C)N1C/C(=C/c2ccsc2)C(=O)/C(=C/c2ccsc2)C1 | 7.95 µM
C[C@H](CO)N1C[C@H](C)[C@H](CN(C)Cc2ccc(C(=O)Nc3ccccc3N)cc2)Oc2ccc(NC(=O)C3CC3)cc2CC1=O | 3.6 µM
CCc1nc(N)nc(N)c1-c1ccc(Cl)c(N=[N+]=[N-])c1 | 8.98 µM
Cc1ccc(/C=N/Nc2ccnc3cc(Cl)ccc23)c(C)c1 | 10.6 µM
N#CC(C#N)=C1C=CC=CN1/C(=C\c1ccco1)C(=O)c1ccc(Cl)cc1 | 3.47 µM
Cc1cccc(/C=N/Nc2ccc3ccccc3n2)c1 | 11.2 µM
O=c1c2ccccc2nc(/C=C/c2cc(Br)ccc2O)n1CCCO | 14.4 µM
Nc1nc(N)c2cc(Sc3ccc4ccccc4c3)ccc2n1 | 4.44 µM
COc1ccccc1C(CCNCc1ccc(N(C)C)cc1)c1ccc(OC(C)C)cc1 (configuration not stated) | 10.7 µM
C=C1C(=O)[C@@]23[C@H](O)C[C@@H]4C(C)(C)CC[C@H](O)[C@@]4(C)[C@@H]2CC[C@@H]1[C@H]3O | 6.9 µM
CC(=NNc1ccc2ccccc2n1)c1ccccn1 | 1.12 µM
O=C1NC(=O)N(Cc2ccco2)C(=O)/C1=C/C=C/c1ccco1 | 13.7 µM
CC(=O)OC1CC(OC2C(O)CC(OC3C(O)CC(OC4CCC5(C)C(CCC6C5CC(O)C5(C)C(C7=CC(=O)OC7)CCC65O)C4)OC3C)OC2C)OC(C)C1OC1OC(CO)C(O)C(O)C1O (configuration not stated) | 0.182 µM
CN1c2ccc(-c3ccc(C#N)cc3)cc2[C@H]2[C@H](CCN2S(=O)(=O)c2cccc(F)c2)[C@@H]1CO | 23.4 µM
COc1ccc(CC(N)c2csc(NC(=O)Nc3cccc(C(F)(F)F)c3)n2)cc1 (configuration not stated) | 10.1 µM
CC1(C)N=C(N)N=C(N)N1c1ccc(CCCCc2ccccc2)cc1 | 3.5 µM
C=CCOC(=O)c1sc(NC(=O)c2ccc(OC)cc2)nc1C | 0.901 µM
CC(=O)OC1CC(OC2C(O)CC(OC3C(O)CC(OC4CCC5(C)C(CCC6C5CCC5(C)C(C7=CC(=O)OC7)C(O)CC65O)C4)OC3C)OC2C)OC(C)C1OC1OC(CO)C(O)C(O)C1O (configuration not stated) | 0.58 µM

SMILES | AC35
Cc1ccccc1S(=O)(=O)N1CC[C@@H]2[C@@H](CO)Nc3ccc(-c4ccc(C#N)cc4)cc3[C@@H]21 | 14.8 µM
CC12CCC(O)CC1CCC1C2CCC2(C)C(C3=CC(=O)OC3)CCC12O (configuration not stated) | 0.375 µM
COC(=O)Cc1[nH]n(-c2nc3ccccc3s2)c(=O)c1C(C)=Nc1ccc(OC)cc1 | 14 µM
COc1cccc(-c2cc(NC=O)c3ncc(-c4ccc(C(C)=O)cc4)n3c2)c1 | 8.98 µM
COc1ccc(OC)c(Cc2cnc3nc(N)nc(N)c3c2C)c1 | 0.151 µM
C[C@@H]1O[C@@H](O[C@H]2C[C@@H](O)[C@]3(CO)[C@H]4[C@H](O)C[C@]5(C)[C@@H](C6COC(=O)C6)CC[C@]5(O)[C@@H]4CC[C@]3(O)C2)[C@H](O)[C@H](O)[C@H]1O (some centres not stated) | 2.22 µM
CCCCCCCCNC(C)C(O)c1ccc(SC(C)C)cc1 (configuration not stated) | 12.2 µM
C=C(C(=O)c1ccccc1)C(C(=C)C(=O)c1ccccc1)c1ccc(OC)cc1 | 5.68 µM
O=C1/C(=C\c2ccccc2)CN(C(=O)CCN2CCCCC2)C/C1=C/c1ccccc1 | 5.13 µM
C[C@]12CC[C@H](O)C[C@H]1CC[C@@H]1[C@@H]2C[C@@H](O)[C@]2(C)[C@@H](C3=CC(=O)OC3)CC[C@]12O | 1.16 µM
CN1c2ccc(-c3ccc(C#N)cc3)cc2[C@H]2[C@H](CCN2S(=O)(=O)c2cccc(F)c2)[C@H]1CO | 13.4 µM
Cc1ccc(S(=O)(=O)Nc2ccc3c(c2)C(=O)N([C@H](C)CO)C[C@H](C)[C@@H](CN(C)Cc2ccc(C(F)(F)F)cc2)OCCCC[C@H](C)O3)cc1 | 8.51 µM
CN(CCO)c1ccc(/C=N/Nc2nncc3ccccc23)cc1 | 13 µM
Nc1nc(=S)c2ncn([C@@H]3O[C@H](CO)[C@@H](O)[C@H]3O)c2[nH]1 | 7.33 µM
Cc1ccc2nc(-c3ccccc3)nn2c1 | 11.7 µM
Cc1nn(Cc2ccccc2Cl)c2sc(C(=O)Nc3ccccc3N3CCOCC3)cc12 | 15.9 µM
CCOC(=O)[C@]12Cc3ccc(C)cc3[C@H]1N(C1CCCCC1)C(=O)c1ccccc12 | 9.24 µM
CC(C)=CCC/C(C)=C/CN1C(=O)N(c2ccc(F)cc2)[C@H]2C[C@@H](c3ccccc3)[C@@H](C)[C@@H](C(=O)N3CCOCC3)C[C@H]21 | 2.01 µM
Cc1ccc(S(=O)(=O)Nc2ccc3c(c2)C(=O)N([C@@H](C)CO)C[C@@H](C)[C@@H](CN(C)Cc2ccc(C(=O)Nc4ccccc4N)cc2)O3)cc1 | 7.11 µM
C[C@@H]1CN([C@H](C)CO)C(=O)c2cc(NC(=O)Nc3ccccc3)ccc2O[C@@H]1CN(C)Cc1ccc(C(=O)Nc2ccccc2N)cc1 | 12.7 µM
Cc1cccc(CN2C(=O)/C(=C\c3ccc(C(=O)NCCCN4CCN(C)CC4)cc3)Oc3ccccc32)c1 | 13.6 µM

SMILES | AC35
CCc1nc(N)nc(N)c1-c1ccc(Cl)cc1 | 15.9 µM
C=C1C(=O)C=C[C@]2(C)C[C@@H]3OC(=O)[C@](C)(O)[C@H]3C[C@@H]12 | 8.77 µM
C[C@@H]1CN([C@@H](C)CO)C(=O)c2cc(NC(=O)c3ccccc3)ccc2O[C@@H](C)CCCCO[C@H]1CN(C)C(=O)Nc1cccc2ccccc12 | 0.637 µM
C[C@@H]1CCCCO[C@H](CN(C)Cc2ccc(C(=O)Nc3ccccc3N)cc2)[C@@H](C)CN([C@H](C)CO)C(=O)c2cc(NS(=O)(=O)c3ccc(Cl)cc3)ccc2O1 | 17.3 µM
COC(=O)C1=C(C)N(Cc2cccc(C(F)(F)F)c2)C(=NCc2ccc(OC)cc2)NC1c1cccc(F)c1 (configuration not stated) | 4.96 µM
CCCCc1c(Cc2ccccc2)ncn1CCc1ccccc1OC | 20.7 µM
C(=Cc1cnc2ccccc2n1)c1ccc2c(c1)OCO2 | 5.29 µM
CO[C@H]1CN(C)C(=O)c2ccc(NC(=O)c3ccc(-c4ccccc4)cc3)cc2OC[C@H](C)NC[C@H]1C | 8.64 µM
C[C@H](CO)N1C[C@H](C)[C@H](CN(C)Cc2ccc(C(=O)Nc3ccccc3N)cc2)Oc2c(cccc2N(C)C)C1=O | 11.3 µM
COc1ccc([Si](C)(C)[C@H]2[C@H](CCO)O[C@@]3(C(=O)N(c4ccccc4)c4ccccc43)[C@@H]2C)cc1 | 15 µM
CC1=NN(c2ccc(C)cc2)C(=O)/C1=C\C=C\c1ccccc1 | 14.3 µM
COc1ccc(S(=O)(=O)N2CC[C@@H]3[C@@H](CO)Nc4ccc(-c5ccc(C#N)cc5)cc4[C@@H]32)cc1 | 16.5 µM
O=c1c(Cl)cc(Cl)nn1-c1ccccc1 | 19.2 µM
CCN1/C(=C/C=C/c2oc3ccc(-c4ccccc4)cc3[n+]2CC)Oc2ccc(-c3ccccc3)cc21 | 4.89 µM
CCc1ccc(N2C=C(C(=O)OC)C(c3ccc(OC)cc3)C(C#N)=C2N)cc1 (configuration not stated) | 10.6 µM
O=C(Sc1cccc2cccnc12)c1ccccc1Br | 7.7 µM
O=C(NC[C@@H]1N[C@@H](CO)[C@H]1c1ccc(C2=CCCCC2)cc1)c1cccc(F)c1 | 10.1 µM
C[C@H]1O[C@@H](O[C@H]2[C@@H](O)C[C@H](O[C@H]3[C@@H](O)C[C@H](O[C@H]4CC[C@@]5(C)[C@H](CC[C@@H]6[C@@H]5C[C@@H](O)[C@]5(C)[C@@H](C7=CC(=O)OC7)CC[C@]65O)C4)O[C@@H]3C)O[C@@H]2C)C[C@H](O)[C@@H]1O | 0.0823 µM
CCCCCCCCCCCCCCCCn1cc[n+](C)c1 | 10.5 µM
